Consider four compounds from patent publication US20240271329A1, “CYCLIC COMPOUND LIBRARY AND CONSTRUCTION METHOD THEREFOR” (Yafei Shanghai Biology Medicine Science & Technology Co. …, priority 2021, published 2024).

The data set is described as follows: MDCK monolayer membrane permeability (A→B transport). Type of data set: in vitro ADME, canine. The conditions noted are these: dog. The method, then: In order to determine the cyclic peptide compounds 9-12 obtained in the above examples, an MDCK model was established to determine their membrane permeability. The MDCK cell line was sourced from Madin Darby canine epithelial cell lines, and the monolayer MDCK cell was the best cytological model to study the in vivo processes such as absorption and reabsorption of drugs in renal tubules. The MDCK cells in a disperse culture flask were digested, and seeded to Millicell CPI at 5×10^4/cm^2; 400 μL of MEM culture solution containing 10% FBS was added to a side A (a luminal side, Apical), and 800 μL of the MEM culture solution was added to a side B (a basolateral side); and the mixture was incubated in an incubator containing 5% CO2 at 37° C. The solution was changed every day. It should be noted that a pipette should not to touch a cell membrane, thereby avoiding damaging the cell layer; and the transmembrane resistance (i.e., trans-epithelial electrical resistance, TEER) was regularly measured by using Millicell2ERS to test the integrity of the cell monolayer.
The A→B transport from the apical end (A) to the basolateral end (B) of the monolayer membrane of the MDCK cells was observed. For the determination of A→B, 450 μL of a drug or a positive control HEPES solution was added to the apical end of the membrane as a feeding cell, and 1300 μL of a blank HEPES solution was added to the basolateral end as a receiving cell. A Transwell plate was placed on a constant-temperature shaker at 37° C. and shaken; after 90 min, a sample solution was extracted respectively from the feeding cell and the receiving cell; acetonitrile was added to precipitate proteins, and then vortexing, centrifuging and transferring were carried out; and the permeance was measured by LC/MS. Based on this permeance, a membrane permeance coefficient (Papp, i.e., apparent permeability, which was a specific evaluation parameter) was calculated. The Papp greater than 1×10^−6 cm/s indicated the absorption of more than 60% of a drug, and the Papp greater than 10×10^−6 cm/s indicated the absorption of more than 80% of drug molecules.

Setting [1] is: MDCK A→B, not, read-out: Papp values.
[2] abbreviates: apical to basolateral, MDCK monolayer, 37° C., 90 min, LC/MS, read-out: MDCK Papp(A − B).

Like-named read-outs stand apart in the source and are kept apart here. Square brackets hold non-standard residues; d marks the D form. Peptide text beside a SMILES is read from it. * marks the point of attachment. ξ: configuration not given here. Phe(3-CF3) = N[C@@H](Cc1cccc(C(F)(F)F)c1)C(=O)O; NMeF = CN[C@@H](Cc1ccccc1)C(=O)O; 3Pal = N[C@@H](Cc1cccnc1)C(=O)O; Cha = N[C@@H](CC1CCCCC1)C(=O)O; Cit = NC(=O)NCCC[C@H](N)C(=O)O; NMeL = CN[C@@H](CC(C)C)C(=O)O; ξP = O=C(O)C1CCCN1; OtBu = CC(C)(C)O*; Sar = CNCC(=O)O Some results are limits rather than exact numbers.

On to `CC(C)C[C@@H]1NC(=O)CNC(=O)[C@H](CC(N)=O)NC(=O)C2CCCN2C(=O)[C@H]2CCCN2C(=O)[C@H](CCC(=O)OC(C)(C)C)NC(=O)CN(C)C(=O)[C@H](Cc2cccc(C(F)(F)F)c2)NC(=O)[C@H](CC(C)C)N(C)C(=O)[C@H](Cc2ccccc2)N(C)C1=O` (stereo partly drawn) [Compound 9] (cyclo(E(OtBu)[dP][ξP]NGL[NMeF][NMeL][Phe(3-CF3)][Sar])), for which the Papp A→B at 90 min was above 10 ×10⁻⁶ cm/s under setting [1] and 11.3 ×10⁻⁶ cm/s under setting [2].

As to `CC(C)C[C@@H]1NC(=O)CNC(=O)[C@H](CC(N)=O)NC(=O)C2CCCN2C(=O)[C@H]2CCCN2C(=O)[C@H](CCC(=O)OC(C)(C)C)NC(=O)CN(C)C(=O)[C@H](Cc2cccnc2)NC(=O)[C@H](CC(C)C)N(C)C(=O)[C@H](Cc2ccccc2)N(C)C1=O` (stereo partly drawn) [Compound 10] (cyclo([3Pal][Sar]E(OtBu)[dP][ξP]NGL[NMeF][NMeL])), under setting [2], the Papp A→B at 90 min is 4.8 ×10⁻⁶ cm/s. As to `CC(C)C[C@@H]1NC(=O)CNC(=O)[C@H](CC(N)=O)NC(=O)C2CCCN2C(=O)[C@H]2CCCN2C(=O)[C@H](CCC(=O)OC(C)(C)C)NC(=O)CN(C)C(=O)[C@H](CC2CCCCC2)NC(=O)[C@H](CC(C)C)N(C)C(=O)[C@H](Cc2ccccc2)N(C)C1=O` (stereo partly drawn) [Compound 11] (cyclo([Cha][Sar]E(OtBu)[dP][ξP]NGL[NMeF][NMeL])), the Papp A→B at 90 min is, setting by setting: under setting [1], above 10 ×10⁻⁶ cm/s; under setting [2], 16.2 ×10⁻⁶ cm/s. With `CC(C)C[C@@H]1NC(=O)CNC(=O)[C@H](CC(N)=O)NC(=O)C2CCCN2C(=O)[C@H]2CCCN2C(=O)[C@H](CCC(=O)OC(C)(C)C)NC(=O)CN(C)C(=O)[C@H](CCCNC(N)=O)NC(=O)[C@H](CC(C)C)N(C)C(=O)[C@H](Cc2ccccc2)N(C)C1=O` (stereo partly drawn) [Compound 12] (cyclo([Cit][Sar]E(OtBu)[dP][ξP]NGL[NMeF][NMeL])), the Papp A→B at 90 min under setting [2] is 0.9 ×10⁻⁶ cm/s.
